The NIST ThermoML archive (doi:10.1021/je7003758)

Assay: xn = mol fraction of the nth substance listed
Settings: 298.15 K, Liquid

ClCCCl [1,2-dichloroethane] + CN1CCCC1=O
mass density [kg/m3]
Settings | x2 = 0.0993 | x2 = 0.2025 | x2 = 0.3012 | x2 = 0.4029 | x2 = 0.4975 | x2 = 0.5832 | x2 = 0.7037 | x2 = 0.7984 | x2 = 0.9029
10000 kPa | – | – | – | 1156.4 | – | 1116.4 | 1091.1 | 1072 | 1051.7
10500 kPa | 1229.6 | 1203.9 | 1180.4 | 1156.7 | 1135.4 | 1116.7 | 1091.4 | 1072.2 | 1051.9
10900 kPa | – | – | 1180.7 | – | – | 1117 | – | – | –
11000 kPa | 1230 | 1204.3 | – | 1157.1 | 1135.7 | – | 1091.7 | 1072.5 | 1052.2
11500 kPa | 1230.4 | 1204.6 | 1181.1 | 1157.5 | 1136.1 | 1117.4 | 1092 | 1072.8 | 1052.4
11900 kPa | – | – | – | – | 1136.4 | – | – | – | –
12000 kPa | 1230.8 | 1205.1 | 1181.5 | 1157.8 | – | 1117.7 | 1092.3 | 1073 | 1052.7
12500 kPa | 1231.3 | 1205.5 | 1181.9 | 1158.2 | 1136.8 | 1118 | 1092.6 | 1073.3 | 1053
13000 kPa | 1231.7 | 1205.9 | 1182.2 | 1158.5 | 1137.1 | 1118.3 | 1092.8 | 1073.6 | 1053.2
13400 kPa | – | – | – | – | 1137.4 | – | – | – | –
13500 kPa | 1232.1 | 1206.2 | 1182.6 | 1158.8 | – | 1118.5 | 1093.2 | 1073.9 | 1053.5
14000 kPa | 1232.5 | 1206.6 | 1183 | 1159.2 | 1137.7 | 1118.9 | 1093.4 | 1074.2 | 1053.8
14500 kPa | 1232.9 | 1207 | – | 1159.5 | 1138 | 1119.2 | 1093.7 | 1074.4 | 1054.1
14600 kPa | – | – | 1183.4 | – | – | – | – | – | –
15000 kPa | 1233.3 | 1207.4 | 1183.7 | 1159.8 | 1138.4 | 1119.4 | 1094 | 1074.8 | 1054.3
15400 kPa | – | – | – | – | – | 1119.8 | – | – | –
15500 kPa | 1233.7 | 1207.8 | 1184.1 | 1160.2 | 1138.7 | – | 1094.3 | 1075 | 1054.6
15900 kPa | – | 1208.2 | – | – | – | 1120 | – | – | –
16000 kPa | 1234.2 | – | 1184.4 | 1160.5 | 1139 | – | 1094.6 | 1075.3 | 1054.8
16500 kPa | 1234.6 | 1208.6 | 1184.8 | 1160.9 | 1139.3 | 1120.4 | 1094.8 | 1075.6 | 1055.1
17000 kPa | 1235 | – | 1185.1 | 1161.2 | 1139.7 | 1120.7 | 1095.1 | 1075.9 | 1055.3
17100 kPa | – | 1209 | – | – | – | – | – | – | –
17400 kPa | – | – | 1185.4 | – | – | – | – | – | –
17500 kPa | 1235.4 | 1209.4 | – | 1161.6 | 1140 | 1121 | 1095.4 | 1076.1 | 1055.6
17900 kPa | – | – | – | 1161.8 | – | – | – | – | –
18000 kPa | 1235.8 | 1209.8 | 1185.8 | – | 1140.3 | 1121.2 | 1095.7 | 1076.4 | 1055.8
18400 kPa | – | 1210.2 | – | 1162.2 | – | – | – | – | –
18500 kPa | 1236.2 | – | 1186.1 | – | 1140.6 | 1121.5 | 1096 | 1076.7 | 1056.1
19000 kPa | 1236.6 | 1210.6 | 1186.6 | 1162.6 | 1140.9 | 1121.9 | 1096.3 | 1077 | 1056.4
19400 kPa | – | – | – | – | 1141.3 | – | – | – | –
19500 kPa | 1237 | 1211 | 1186.9 | 1163 | – | 1122.2 | 1096.6 | 1077.2 | 1056.6
20000 kPa | 1237.5 | 1211.4 | 1187.4 | 1163.4 | 1141.9 | 1122.6 | 1096.9 | 1077.5 | 1057.1
